According to patent US9085550B2, “Ligands for estrogen related receptors and methods for synthesis of said ligands” (CITY OF HOPE, priority 2005, dated 2015):
Values joined by “and” are separate entries in the source; they are usually repeats but may differ in a detail not shown here. Equal values may be shown once.

Tests used:
Type in all cases: cell-based
ERR = experiment: GAL4-ERR reporter assay in CV-1 cells, potency with versus without PGC-1a; settings: activated ERR at lower doses in the presence of PGC-1a
Protocol: Additional compounds were tested for their effects on ERR activation (Tables 3-6). DY159, DY162, DY163 and DY164 as well as DY131 can activate all three ERRs (ERRα/β/γ) in the presence of PGC-1a. […] Therefore, these compounds have two novel features yet to be reported: a) they are selective ERR modulators or coactivator-selective ligands, i.e., they activate ERR better in the presence of PGC-1a then the other coactivators that are normally present in CV-1 cells; and b) these are the first synthetic compounds reported to ACTIVATE ERRα. Previously reported compounds repress the constitutive activity of ERRα (see Willy et al., supra).
Referring to Tables 1-6, cell based transactivation assays were performed in CV-1 cells as described. See Wang, H., Chen, J., Hollister, K., Sowers, L. C., Forman, B. M., Endogenous bile acids are ligands for the nuclear receptor FXR/BAR, Mol Cell 1999, 3, 543-553. ERR activity was assayed with a GAL4 reporter construct and fusion proteins containing the ligand binding domains of human ERRα, human ERR β and mouse ERRγ linked to the DNA binding domain of yeast GAL4. Human ERα and ERβ were examined as full-length proteins using an estrogen receptor responsive reporter construct.
To test the effect of the compounds on ERR and ER, CV-1 cells were transiently transfected with expression vectors for the receptors along with appropriate reporter constructs according to methods known in the art. The receptors to be tested were expressed in CV-1 cells. Suitable reporter gene constructs are well known to skilled workers in the fields of biochemistry and molecular biology. All transfections additionally contained an expression vector with a cytomegalovirus promoter (pCMV-β-gal) as an internal control. Suitable constructs for use in these studies may conveniently be cloned into a cytomegalovirus expression vector (pCMV). For example, pCMV-β-gal contains the E. coli β-galactosidase gene expressed under control of the cytomegalovirus promoter/enhancer. Other vectors known in the art can be used in the methods of the present invention. […]

[1] = biological target: T1, GAL-mERRg (mouse ERRγ ligand binding domain fused to GAL4 DNA binding domain) (Mus musculus, UniProt P62509); experiment: GAL4 reporter transactivation assay in CV-1 cells, GAL-mERRg; settings: for Fold activation, GAL-mERRg + PGC-1a / Fold activation, GAL-mERRg / Fold activation, Receptor ERRγ: CV-1; for Fold activation, GAL-mERRg + PGC-1a: reporter 0.42:vector 0.00875:PGC-1a 0.035; for Fold activation, GAL-mERRg: reporter 0.42:vector 0.00875, no PGC-1a; for Activation of ERRγ: in the presence of PGC-1a; for Fold activation, Receptor ERRγ: Table 1, reporter 0.42:receptor vector 0.035:PGC-1a 0.035
T1 construct: expressed in transfected cells; host or cells: CV-1
T1 sequence (P62509 233-457 limits assumed): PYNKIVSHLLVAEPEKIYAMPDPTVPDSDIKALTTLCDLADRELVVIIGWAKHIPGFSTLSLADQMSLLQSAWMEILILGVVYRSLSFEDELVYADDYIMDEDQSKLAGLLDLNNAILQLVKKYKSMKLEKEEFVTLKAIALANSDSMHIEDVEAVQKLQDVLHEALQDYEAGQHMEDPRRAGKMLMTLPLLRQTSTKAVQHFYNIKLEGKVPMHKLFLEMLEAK

human ERα = biological target: T2, human ERα (Homo sapiens, UniProt P03372); experiment: ERE-TK-luc reporter transactivation assay in CV-1 cells, full-length hERa; settings: for Fold Activation, ERE-TK-luc, hERa: Table 7, CV-1, drug conc 30 μM; for Activation of ERa: specificity for ERRs
T2 construct: Human ERα and ERβ were examined as full-length proteins using an estrogen receptor responsive reporter construct; expressed in transfected cells; host or cells: CV-1
T2 sequence (P03372 1-595): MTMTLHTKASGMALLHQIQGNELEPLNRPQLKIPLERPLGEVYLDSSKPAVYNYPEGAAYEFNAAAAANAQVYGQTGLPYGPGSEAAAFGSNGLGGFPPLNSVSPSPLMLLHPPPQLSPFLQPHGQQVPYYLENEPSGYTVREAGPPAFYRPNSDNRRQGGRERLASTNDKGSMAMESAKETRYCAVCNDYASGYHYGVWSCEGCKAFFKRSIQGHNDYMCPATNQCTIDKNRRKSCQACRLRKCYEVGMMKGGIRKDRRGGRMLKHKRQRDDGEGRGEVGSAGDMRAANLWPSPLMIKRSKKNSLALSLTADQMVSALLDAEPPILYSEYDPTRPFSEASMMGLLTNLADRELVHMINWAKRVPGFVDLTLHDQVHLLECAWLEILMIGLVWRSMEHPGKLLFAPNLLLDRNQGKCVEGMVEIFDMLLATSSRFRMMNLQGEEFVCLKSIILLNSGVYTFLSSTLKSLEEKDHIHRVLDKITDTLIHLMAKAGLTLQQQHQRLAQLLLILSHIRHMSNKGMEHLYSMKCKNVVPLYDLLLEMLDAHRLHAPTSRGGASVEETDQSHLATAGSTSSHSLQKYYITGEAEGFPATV
Protocol: (§1) Human ERα and ERβ were examined as full-length proteins using an estrogen receptor responsive reporter construct.
(§2) Suitable reporter gene constructs are well known to skilled workers in the fields of biochemistry and molecular biology. […] Other vectors known in the art can be used in the methods of the present invention.
(§3) CV-1 cells for the activation assays were grown in Dulbecco's modified Eagle's medium supplemented with 10% resin charcoal-stripped fetal bovine serum, 50 U/ml penicillin G and 50 μg/ml streptomycin sulfate (DMEM-FBS) at 37° C. in 5% CO2. One day prior to transfection, cells were plated to 50-80% confluence using phenol red free DMEM-FBS.

human ERβ = biological target: T3, human ERβ (Homo sapiens, UniProt Q92731); experiment: ERE-TK-luc reporter transactivation assay in CV-1 cells, full-length hERb; settings: for Fold Activation, ERE-TK-luc, hERb: Table 7, drug conc 30 μM; for Fold Activation, ERE-TK-luc, hERb / Fold activation, Receptor ERRβ: CV-1; for Activation of ERb: specificity for ERRs; for Fold activation, Receptor ERRβ: Table 1 second block
T3 construct: Human ERα and ERβ were examined as full-length proteins using an estrogen receptor responsive reporter construct; expressed in transfected cells; host or cells: CV-1
Protocol: as §1, §2, §3

T3 sequence (Q92731 whole entry): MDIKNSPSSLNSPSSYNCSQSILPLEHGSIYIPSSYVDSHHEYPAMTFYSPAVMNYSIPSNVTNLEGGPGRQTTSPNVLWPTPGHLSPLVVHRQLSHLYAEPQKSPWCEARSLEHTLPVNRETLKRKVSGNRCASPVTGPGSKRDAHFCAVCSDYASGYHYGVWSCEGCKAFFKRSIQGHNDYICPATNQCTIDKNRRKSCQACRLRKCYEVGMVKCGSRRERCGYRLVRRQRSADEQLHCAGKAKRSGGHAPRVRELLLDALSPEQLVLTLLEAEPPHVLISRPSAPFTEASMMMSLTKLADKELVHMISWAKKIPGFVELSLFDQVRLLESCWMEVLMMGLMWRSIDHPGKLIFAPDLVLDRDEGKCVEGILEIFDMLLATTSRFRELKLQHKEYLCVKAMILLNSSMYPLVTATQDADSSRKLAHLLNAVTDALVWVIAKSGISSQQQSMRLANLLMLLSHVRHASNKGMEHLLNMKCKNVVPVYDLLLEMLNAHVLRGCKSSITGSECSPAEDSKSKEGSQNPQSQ

| Fold activation, GAL-mERRg + PGC-1a ([1]; 1 μM) | Fold activation, GAL-mERRg + PGC-1a ([1]; 3 μM (first 3 μM column)) | Fold activation, GAL-mERRg + PGC-1a ([1]; 3 μM (second 3 μM column)) | Fold activation, GAL-mERRg + PGC-1a ([1]; 10 μM) | Fold activation, GAL-mERRg + PGC-1a ([1]; 30 μM) | Fold activation, GAL-mERRg ([1]; 1 μM) | Fold activation, GAL-mERRg ([1]; 3 μM (first 3 μM column)) | Fold activation, GAL-mERRg ([1]; 3 μM (second 3 μM column)) | Fold activation, GAL-mERRg ([1]; 10 μM) | Fold activation, GAL-mERRg ([1]; 30 μM) | Activation of ERRγ [1] | Fold Activation, ERE-TK-luc, hERa (human ERα) | Activation of ERa (human ERα) | Fold Activation, ERE-TK-luc, hERb (human ERβ) | Activation of ERb (human ERβ) | Fold activation, GAL-mERRg + PGC-1a ([1]; 0.3 μM) | Fold activation, GAL-mERRg ([1]; 0.3 μM) | SMILES | Potency of ERR activation with versus without PGC-1a (ERR) | other results |
| --- | --- | --- | --- | --- | --- | --- | --- | --- | --- | --- | --- | --- | --- | --- | --- | --- | --- | --- | --- |
| 1.16 fold | 1.45 fold | 1.80 fold | 2.70 fold | 2.56 fold | 1.39 fold | 1.28 fold | 1.22 fold | 1.36 fold | 1.01 fold | can activate | 1.59 fold | do not activate | 1.93 fold | do not activate |  |  | Cc1cccc(C=NNC(=O)c2ccc(O)cc2)c1 [DY159, 4-Hydroxy-benzoic acid (3-methyl-benzylidene)-hydrazide] | more potent activators in the presence of PGC-1a than without |  |
| 1.06 fold | 1.53 fold | 1.63 fold | 2.45 fold | 2.46 fold | 0.89 fold | 0.92 fold | 1.40 fold | 1.88 fold | 1.59 fold | can activate | 1.74 fold | do not activate | 1.74 fold | do not activate | 0.92 fold | 1.04 fold | O=C(NN=Cc1ccccc1)c1ccc(O)cc1 [DY162, 4-Hydroxy-benzoic acid benzylidene-hydrazide] | more potent activators in the presence of PGC-1a than without |  |
| 1.59 fold | 2.65 fold | 2.29 fold | 2.82 fold | 3.09 fold | 0.92 fold | 1.26 fold | 1.70 fold | 1.49 fold | 1.91 fold | can activate | 0.53 fold | do not activate | 1.19 fold | do not activate | 1.38 fold | 0.87 fold | CCN(CC)c1ccc(C=NNC(=O)c2ccc(O)cc2)cc1 [DY131, 4-Hydroxy-benzoic acid (4-diethylamino-benzylidene)-hydrazide] | more potent activators in the presence of PGC-1a than without | Fold activation, Receptor ERRγ ([1]; 3 μM): 5 fold and 5.0 fold; Fold activation, Receptor ERRγ ([1]; 10 μM): 5.9 fold; Fold activation, Receptor ERRγ ([1]; 30 μM): 6.6 fold; Activity on ERα (activate or inhibit) (human ERα; CV-1 reporter assay): failed to activate or inhibit; Activity on ERβ (activate or inhibit) (human ERβ; CV-1 reporter assay): failed to activate or inhibit; Fold activation, Receptor ERRβ (human ERβ; 3 μM): 1.1 fold; Fold activation, Receptor ERRβ (human ERβ; 10 μM): 1.0 fold; Fold activation, Receptor ERRβ (human ERβ; 30 μM): 1.2 fold |
